According to patent US20240336593A1, “Compound Having Antitumor Activity And Use Thereof” (lnnovStoneTherapeutics Limited, priority 2020, published 2024):
Where a name gives a salt, the structure may show the parent alone.

Target: PRMT5 (Homo sapiens (Human), UniProt O14744)
Experiment: Inhibitory activity against PRMT5 enzyme by radioisotopic method
Assay type: biochemical
Settings: PRMT5 5 nM, [3H]-SAM 0.3 μM, polypeptide substrate GL-27 100 nM, room temperature
Method: Test Example 1. Test on the inhibitory activity of the compounds of the invention against PRMT5 enzyme by radioisotopic method
Test method: A 1× enzyme reaction buffer (10 mM Tris 8.0 (Sigma, Cat. No. T2694-1L), 0.01% Tween-20 (Sigma, Cat. No. P2287-100 ML), 1 mM DTT (Sigma, Cat. No. D0632-10G)) was prepared. PRMT5 (Active Motif, Cat. No. 31921) and [3H]—SAM (PerkinElmer, Cat. No. NET155V001MC) were added to the 1×enzyme reaction buffer, to prepare a 25/15× mixed solution (PRMT5 final concentration: 5 nM, [3H]—SAM final concentration: 0.3 μM). 15 μL of this solution was transferred into a 384-well microplate (Corning 384-well Polypropylene Storage Microplates, Cat. No. 3657) with various concentrations of the compounds (DMSO final concentration 1%), and incubated at room temperature for 60 minutes. A polypeptide substrate, GL-27 (Ac-[…]-K (Biotin) (GL Biochem, Cat. No. 342095)), was added into the 1×enzyme reaction buffer to prepare a 25/10× substrate solution. Then 10 μL of the polypeptide substrate solution (final concentration of the polypeptide substrate: 100 nM) was added, a reaction was stirred at room temperature for 120 minutes, and then 5 μL 6× ice cold SAM (Sigma, Cat. No. A7007-100 MG) solution was added to stop the reaction (SAM final concentration: 0.125 mM). 25 µL of the reaction mixture was transferred into a FlashPlate (Streptavidin FlashPlate HTS PLUS, High Capacity, 384-well, Perkin Elmer, Cat. No. SMP410A001PK), and incubated at room temperature for 1 h. After washed three times with distilled water containing 0.1% Tween-20, the microplate was read on a MicroBeta reader for CPM data (Counts Per Minute). […] Then the inhibition rate Inh % (Y) corresponding to each concentration (X) was input in EXCEL, and the IC50 value (the half maximal inhibitory concentration) of each compound was calculated with the XLfit plug-in according to the built-in four-parameter fitting equation Y=Bottom+(Top-Bottom)/(1+(IC50/X)[…]).

PRMT5, sequence (O14744 whole entry): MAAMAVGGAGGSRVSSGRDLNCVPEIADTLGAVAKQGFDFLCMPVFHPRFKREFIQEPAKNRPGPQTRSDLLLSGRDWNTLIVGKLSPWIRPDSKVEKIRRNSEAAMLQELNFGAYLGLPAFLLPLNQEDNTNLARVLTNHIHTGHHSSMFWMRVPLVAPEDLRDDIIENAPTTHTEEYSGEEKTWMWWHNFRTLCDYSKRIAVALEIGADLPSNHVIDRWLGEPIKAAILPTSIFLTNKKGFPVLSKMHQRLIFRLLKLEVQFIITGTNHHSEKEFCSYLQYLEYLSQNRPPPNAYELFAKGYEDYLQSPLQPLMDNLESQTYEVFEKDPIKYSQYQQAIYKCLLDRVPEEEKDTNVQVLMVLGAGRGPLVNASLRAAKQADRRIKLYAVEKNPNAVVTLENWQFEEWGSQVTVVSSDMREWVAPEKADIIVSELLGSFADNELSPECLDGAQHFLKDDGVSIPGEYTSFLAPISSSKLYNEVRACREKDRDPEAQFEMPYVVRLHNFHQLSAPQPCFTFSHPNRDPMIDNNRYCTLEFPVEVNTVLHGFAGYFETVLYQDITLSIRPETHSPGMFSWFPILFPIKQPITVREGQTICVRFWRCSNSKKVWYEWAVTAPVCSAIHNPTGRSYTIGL
PRMT5, sequence (Q9BQA1 whole entry partner): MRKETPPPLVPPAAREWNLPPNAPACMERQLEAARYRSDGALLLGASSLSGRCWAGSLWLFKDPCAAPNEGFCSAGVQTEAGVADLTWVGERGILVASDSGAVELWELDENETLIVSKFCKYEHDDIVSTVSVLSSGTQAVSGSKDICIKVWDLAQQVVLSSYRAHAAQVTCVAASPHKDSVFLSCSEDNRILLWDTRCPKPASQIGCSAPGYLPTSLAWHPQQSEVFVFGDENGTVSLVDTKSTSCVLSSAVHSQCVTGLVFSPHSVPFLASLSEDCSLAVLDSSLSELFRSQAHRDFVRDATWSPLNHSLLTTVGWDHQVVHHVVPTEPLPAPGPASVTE

SMILES	IC50
COC(=O)N1CCC(Nc2cc(C(=O)N3CC[C@H](N4CCc5ccccc5C4)[C@@H](O)C3)ncn2)CC1 (relative stereo) [Example 123, methyl trans-4-((6-(4-(3,4-dihydroisoquinolin-2(1H)-yl)-3-hydroxypiperidine-1-carbonyl)pyrimidin-4-yl)amino)piperidine-1-carboxylate]	< 100 nM
CNC(=O)c1ccc(Nc2cc(C(=O)N3CC[C@H](N4CCc5ccccc5C4)[C@@H](O)C3)ncn2)cc1 (relative stereo) [Example 131, trans-4-((6-(4-(3,4-dihydroisoquinolin-2(1H)-yl)-3-hydroxypiperidine-1-carbonyl)pyrimidin-4-yl)amino)-N-methylbenzamide]	< 100 nM
CNC(=O)c1cccc(Nc2cc(C(=O)N3CC[C@H](N4CCc5ccccc5C4)[C@@H](O)C3)ncn2)c1 (relative stereo) [Example 134, trans-3-((6-(4-(3,4-dihydroisoquinolin-2(1H)-yl)-3-hydroxypiperidine-1-carbonyl)pyrimidin-4-yl)amino)-N-methylbenzamide]	< 100 nM
CC(=O)N1CCC(Oc2cc(C(=O)N3CC[C@@H](N4CCc5ccccc5C4)[C@H](O)C3)ncn2)CC1 (relative stereo) [Example 142, trans-1-(4-((6-(4-(3,4-dihydroisoquinolin-2(1H)-yl)-3-hydroxypiperidine-1-carbonyl)pyrimidin-4-yl)oxy)piperidin-1-yl)ethan-1-one]	< 100 nM
CC(=O)N1CCC(Nc2cc(C(=O)N3CC[C@H](N4CCc5ccccc5C4)[C@@H](O)C3)nc(N3CCOCC3)n2)CC1 (relative stereo) [Example 144, 1-(4-((6-(trans-4-(3,4-dihydroisoquinolin-2(1H)-yl)-3-hydroxypiperidine-1-carbonyl)-2-morpholinopyrimidin-4-yl)amino)piperidin-1-yl)ethan-1-one]	< 100 nM
Cc1ccc(Nc2cc(N3CC[C@H](N4CCc5ccccc5C4)[C@@H](O)C3)ncn2)cc1 [Example 41, trans-1-(6-((4-methylphenyl)amino)pyrimidin-4-yl)-4-(3,4-dihydroisoquinolin-2(l H)-yl)piperidin-3-ol]	< 100 nM
O[C@H]1CN(c2cc(Nc3cccc4c3OCO4)ncn2)CC[C@@H]1N1CCc2ccccc2C1 [Example 83, trans-1-(6-(benzo[d][1,3]dioxazol-4-ylamino)pyrimidin-4-yl)-4-(3,4-dihydroisoquinolin-2(1H)-yl)piperidin-3-ol]	< 100 nM
O[C@@H]1CN(c2cc(Nc3cccc(Cl)c3Cl)ncn2)CC[C@H]1N1CCc2ccccc2C1 [Example 89]	< 100 nM
COCCN1CCC(Nc2cc(C(=O)N3CC[C@H](N4CCc5ccccc5C4)[C@@H](O)C3)ncn2)CC1 [Example 96]	< 100 nM
O=C(c1cc(N2CC[C@H](N3CCc4ccccc4C3)[C@@H](O)C2)ncn1)N1CC[C@H](N2CCc3ccccc3C2)[C@@H](O)C1 [Example 97]	< 100 nM
O=C(c1cc(Nc2ccccc2)ncn1)N1CC[C@H](N2CCc3ccccc3C2)[C@@H](O)C1 [Example 101]	< 100 nM
CC(=O)N1CCC(CNc2cc(C(=O)N3CC[C@H](N4CCc5ccccc5C4)[C@@H](O)C3)ncn2)CC1 [Example 103]	< 100 nM
CC(=O)N1CCC(Nc2cc(C(=O)N3CC[C@H](N4CCc5ccccc5C4)[C@@H](O)C3)nc(-c3ccccc3)n2)CC1 [Example 104]	< 100 nM
O=C(c1cc(Nc2cccc(N3CCCC3)c2)ncn1)N1CC[C@H](N2CCc3ccccc3C2)[C@@H](O)C1 [Example 108]	< 100 nM
O=C(c1cc(NC2CCOCC2)ncn1)N1CC[C@H](N2CCc3ccccc3C2)[C@@H](O)C1 [Example 109]	< 100 nM
CC(=O)N1CCC(Nc2cc(C(=O)N3CC[C@H](O)[C@@H](N4CCc5ccccc5C4)CC3)ncn2)CC1 [Example 124, 1-(4-((6-((4S,5S)-4-(3,4-dihydroisoquinolin-2(1H)-yl)-5-hydroxyazepane-1-carbonyl)pyrimidin-4-yl)amino)piperidin-1-yl)ethan-1-one]	< 100 nM
O=C(c1cc(NC2CCN(CC(F)(F)F)CC2)ncn1)N1CC[C@H](O)[C@@H](N2CCc3ccccc3C2)CC1 [Example 127]	< 100 nM
N#CC1CCC(Nc2cc(C(=O)N3CC[C@H](N4CCc5ccccc5C4)[C@@H](O)C3)ncn2)CC1 (stereo partly drawn) [Example 138, 4-((6-(trans-4-(3,4-dihydroisoquinolin-2(1H)-yl)-3-hydroxypiperidine-L-carbonyl)pyrimidin-4-yl)amino)cyclohexane-1-carbonitrile]	< 100 nM
CC(=O)N1CCC(Nc2cc(C(=O)N3CC[C@H](N4CCc5ccccc5C4)[C@@H](O)C3)nc(-c3ccncc3)n2)CC1 [Example 139]	< 100 nM
CC(=O)N1CCC(Nc2cc(C(=O)N3CC[C@@H](N4CCc5ccccc5C4)[C@H](O)C3)nc(OCC(C)C)n2)CC1 [Example 140, 1-(4-((6-((3R,4R)-4-(3,4-dihydro-4,4-dideuterium-isoquinolin-2(1H)-yl)-3-hydroxypiperidine-1-carbonyl)-2-isobutoxypyrimidin-4-yl)amino)piperidin-1-yl)ethan-1-one]	< 100 nM
CCC(CC)Oc1nc(NC2CCN(C(C)=O)CC2)cc(C(=O)N2CC[C@@H](N3CCc4ccccc4C3)[C@H](O)C2)n1 [Example 141, 1-(4-((6-((3R,4R)-4-(3,4-dihydro-4,4-dideuterium-isoquinolin-2(1H)-yl)-3-hydroxypiperidine-1-carbonyl)-2-(pentane-3-oxy)pyrimidin-4-yl)amino)piperidin-1-yl)-ethan-1-one]	< 100 nM
CC(=O)N1CCC(Nc2cc(C(=O)N3CC[C@@H](N4CCc5ccccc5C4)[C@H](O)C3)nc(N3CCN(C)CC3)n2)CC1 [Example 149, 1-(4-((6-((3R,4R)-4-(3,4-dihydroisoquinolin-2(1H)-yl)-3-hydroxypiperidine-1-carbonyl)-2-(4-methylpiperazin-1-yl)pyrimidin-4-yl)amino)piperidin-1-yl)ethan-1-one]	< 100 nM
C#Cc1nc(NC2CCN(C(C)=O)CC2)cc(C(=O)N2CC[C@@H](N3CCc4ccccc4C3)[C@H](O)C2)n1 [Example 150, 1-(4-((6-((3R,4R)-4-(3,4-dihydroisoquinolin-2(1H)-yl)-3-hydroxypiperidine-1-carbonyl)-2-ethynylpyrimidin-4-yl)amino)piperidin-1-yl)ethan-1-one]	< 100 nM
CC(=O)N1CCC(Nc2cc(C(=O)N3CC[C@@H](N4CCc5ccccc5C4)[C@H](O)C3)nc(OC(F)(F)F)n2)CC1 [Example 151, 1-(4-((6-((3R,4R)-4-(3,4-dihydroisoquinolin-2(1H)-yl)-3-hydroxypiperidine-1-carbonyl)-2-(trifluoromethoxy)pyrimidin-4-yl)amino)piperidin-1-yl)ethan-1-one]	< 100 nM
C=Cc1nc(NC2CCN(C(C)=O)CC2)cc(C(=O)N2CC[C@@H](N3CCc4ccccc4C3)[C@H](O)C2)n1 [Example 152, 1-(4-((6-((3R,4R)-4-(3,4-dihydroisoquinolin-2(1H)-yl)-3-hydroxypiperidine-1-carbonyl)-2-vinylpyrimidin-4-yl)amino)piperidin-1-yl)ethan-1-one]	< 100 nM
CC(=O)N1CCC(Nc2cc(C(=O)N3CC[C@@H](N4CCc5ccccc5C4)[C@H](O)C3)nc(-c3ccc(C)s3)n2)CC1 [Example 153, 1-(4-((6-((3R,4R)-4-(3,4-dihydroisoquinolin-2(1H)-yl)-3-hydroxypiperidine-1-carbonyl)-2-(5-methylthiophen-2-yl)pyrimidin-4-yl)amino)piperidin-1-yl)ethan-1-one]	< 100 nM
CC(=O)N1CCC(Nc2cc(C(=O)N3CC[C@@H](N4CCc5ccccc5C4)[C@H](O)C3)nc(OC3CCC(F)(F)CC3)n2)CC1 [Example 154, 1-(4-((2-((4,4-difluorocyclohexyl)oxy)-6-((3R,4R)-4-(3,4-dihydroisoquinolin-2(1H)-yl)-3-hydroxypiperidine-1-carbonyl)pyrimidin-4-yl)amino)-piperidin-1-yl)ethan-1-one]	< 100 nM
CC(=O)N1CCC(Nc2cc(C(=O)N3CC[C@@H](N4CCc5ccccc5C4)[C@H](O)C3)nc(SC(C)C)n2)CC1 [Example 155, 1-(4-((6-((3R,4R)-4-(3,4-dihydroisoquinolin-2(1H)-yl)-3-hydroxy-piperidine-1-carbonyl)-2-(isopropylthio)pyrimidin-4-yl)amino)piperidin-1-yl)ethan-1-one hydrochloride]	< 100 nM
CCC(CC)Oc1nc(NC2CCN(C(=O)C3CC(F)(F)C3)CC2)cc(C(=O)N2CC[C@@H](N3CCc4ccccc4C3)[C@H](O)C2)n1 [Example 156, (6-((1-(3,3-difluorocyclobutane-1-carbonyl)piperidin-4-yl)amino)-2-(pentan-3-oxy)pyrimidin-4-yl)((3R,4R)-4-(3,4-dihydroisoquinolin-2(1H)-yl)-3-hydroxy-piperidin-1-yl)ketone]	< 100 nM
